{
  "source": "patent US6528276B1",
  "about": "“Fusion proteins, DNA molecules, vectors, and host cells useful for measuring protease activity” (priority 1998, dated 2003)",
  "key": {"[1]": {"tested_on": "fusion protein EdR5A/5B (i.e., the protein encoded by VgRXR-5A/5B)", "experiment": "Ligand-induced activation of the VgRXR-5A/5B fusion protein, luciferase reporter in COS cells without protease", "assay_type": "cell-based", "description": "(§1) COS African green monkey kidney cells were plated at approximately 150,000 cells/well in a 6-well plate. The next day, approximately 3.6 μg plasmid DNA was dissolved in 100 μl of Dulbecco's modified Eagle's media-Gibco BRL (DMEM), combined with 29 μl of Superfect reagent (Qiagen), and then mixed by pipetting. The mixture was incubated at room temperature for ten minutes.\n(§2) The amounts of DNA typically used in each experiment was as follows: 0.6 μg of pIND-Luc, 0.6 μg of pVgRXR-5A/5B or pVgRXR-5A**5B, and 0-2.4 μg of pSRα-NS3-4A or pSRα-NS3-4A(S1165A) or pSRα.\n(§3) Next 600 μl of DMEM with v/v 10% fetal bovine serum (10% FBS-DMEM) was added to the DNA mixture and mixed by pipetting. The cells in the 6-well plate were washed with 2.5 ml phosphate-buffered saline (PBS). The PBS was removed from the cells and replaced by the DNA mixture. The cells were incubated in the DNA mixture for three hours at 37° C. in a 5% CO2 incubator.\nAfter incubation, the cells were washed with PBS. The PBS was removed and 10% FBS-DMEM was added to the cells. The cells were incubated in 10% FBS-DMEM overnight at 37° C. in a 5% CO2 incubator.\nOn the next day, an exogenous ligand was added to the cells to induce transcription of the reporter gene. Specifically, the 10% FBS-DMEM was aspirated off the cells and replaced with a 10% FBS-DMEM solution containing a concentration of 1-10 μM muristerone A or 1-10 μM ponasterone A (Invitrogen, United Kingdom). In some cases, a protease inhibitor dissolved in dimethylsulfoxide(DMSO) was also added to the cells for a final concentration of 1-40 μM. The cells were incubated with muristerone A or ponasterone A for 24 hours at 37° C. in a 5% CO2 incubator.\nThe following day, the cells were washed with PBS. The activity of the luciferase protein was measured using a luciferase assay kit (Promega). Specifically, the cells were lysed in 250 μl of Cell Culture Lysis Reagent. The cells were scraped from the plate and transferred to a microfuge tube. The extract was spun at 12,000×g for 5 seconds. Twenty microliters of each sample was added to 100 μl of Luciferase Assay Reagent. The light produced by the reaction of the luciferase with the Reagent was measured in a luminometer and was reported as relative light units (RLU).\nThe plasmid pIND-Luc (0.6 μg) was cotransfected with pVgRXR-5A/5B (0.6 μg) in the absence or presence of 1.8 μg of pSRαNS3-4A. On the following day, the cells were incubated with varying amounts of ponasterone A, a ligand which induces the neterodimerization of ecdysone receptor with the mammalian […], RXR. The cells were lysed and assayed for luciferase activity as described previously. The results are depicted in FIG. 7. […]"}, "[2]": {"tested_on": "pIND-Luc luciferase reporter", "experiment": "Muristerone A-induced transactivation of pIND-Luc by expressed fusion proteins in COS cells", "assay_type": "cell-based, African green monkey", "settings": "1 μM muristerone A", "description": "as §1, §2, §3\nAfter incubation, the cells were washed with PBS. The PBS was removed and 10% FBS-DMEM was added to the cells. […]\nThe following day, the cells were washed with PBS. The activity of the luciferase protein was measured using a luciferase assay kit (Promega). […] The light produced by the reaction of the luciferase with the Reagent was measured in a luminometer and was reported as relative light units (RLU). […]"}},
  "data": [
    {"molecule": "CC(C)CC[C@@H](O)[C@](C)(O)[C@H]1CC[C@@]2(O)C3=CC(=O)[C@@H]4C[C@@H](O)[C@@H](O)C[C@]4(C)[C@H]3CC[C@]12C", "note": "[ponasterone A]", "values": [
      {"measurement": "activation of the fusion protein", "setting": "[1]; absence of the protease NS3-4A", "value": "effective at activating the fusion protein"},
      {"measurement": "induction of transcription compared with muristerone A", "setting": "[1]; in these assays", "value": "equally effective"},
      {"measurement": "ponasterone A concentration giving greatest activation of the fusion protein", "setting": "[1]; tested at 1, 3.3, 10, 33, 100 μM, COS cells", "value": "3.3 to 10", "unit": "µM"}
    ]},
    {"molecule": "C[S+](C)[O-]", "note": "[DMSO, dimethylsulfoxide]", "values": [
      {"measurement": "effect on ponasterone A-induced luciferase activity", "setting": "[1]; DMSO concentrations up to 1% (v/v), 5 μM ponasterone A, with or without pSRαNS3-4A", "value": "little or no effect"}
    ]},
    {"molecule": "pVgRXR-5A(Stop)5B: control fusion protein with tandem stop codons in the 5A/5B cleavage site (SEQ ID NO:22) (protein) MAPPTDVSLGDELHLDGEDVAMAHADALDDFDLDMLGDGDSPGPGFTPHDSAPYGALDMADFEFEQMFTDALGIDEYGGKLLGTGADTEDVVCC", "values": [
      {"measurement": "muristerone A-induced luciferase activity of the expressed fusion protein", "setting": "[2]; 24 hours, no protease, FIG. 4", "value": "negligible activity"}
    ]},
    {"molecule": "VgRXR: Invitrogen vector product: modified ecdysone receptor/VP16 fusion (VgEcR) plus RXR (protein, left off: large carriers, Invitrogen vector product: modified ecdysone receptor/VP16 fusion (VgEcR) plus RXR) TPTTPLHLQQNLGGAGGGGIGGMGILHHANGTPNGLIGVVGGGGGVGLGVGGGGVGGLGMQHTPRSDSVNSISSGRDDLSPSSSLNGYSANESCDAKKSKKGPAPRVQEELCLVCGDRASGYHYNALTCEGCKGFFRRSVTKSAVYCCKFGRACEMDMYMRRKCQECRLKKCLAVGMRPECVVPENQCAMKRREKKAQKEKDKMTTSPSSQHGGNGSLASGGGQDFVKKEILDLMTCEPPQHATIPLLPDEILAKCQARNIPSLTYNQLAVIYKLIWYQDGYEQPSEEDLRRIMSQPDENESQTDVSFRHITEITILTVQLIVEFAKGLPAFTKIPQEDQITLLKACSSEVMMLRMARRYDHSSDSIFFANNRSYTRDSYKMAGMADNIEDLLHFCRQMFSMKVDNVEYALLTAIVIFSDRPGLEKAQLVEAIQSYYIDTLRIYILNRHCGDSMSLVFYAKLLSILTELRTLGNQNAEMCFSLKLKNRKLPKFLEEIWDVHAIPPSVQSHLQITQEENERLERAERMRASVGGAITAGIDCDSASTSAAAAAAQHQPQPQPQPQPSSLTQNDSQHQTQPQLQPQLPPQLQGQLQPQLQPQLQTQLQPQIQPQPQLLPVSAPVPASVTAPGSLSAVSTSSEYMGGSAAIGPITPATTSSITAAVTASSTTSAVPMGNGVGVGVGVGGNVSMYANAQTAMALMGVALHSHQEQLIGGVAVKSEHSTTA", "values": [
      {"measurement": "change in luciferase activity when coexpressed with the protease NS3-4A", "setting": "[2]; increasing amounts of pSRαNS3-4A", "value": "little or no change"}
    ]}
  ]
}
